Data published in patent US20200331904A1, “3-AMINO-[1,2,4]-TRIAZOLE DERIVATIVES AND THEIR USE FOR CONTROLLING UNDESIRED PLANT GROWTH” (Bayer CropScience Aktiengesellschaft, priority 2017, published 2020).

Experiments:
Format in all cases: in vivo
Polygonum convolvulus = assay: Pre-emergence herbicidal efficacy, POLCO; conditions: Table B2, application rate 320 g/ha, scored visually after about 3 weeks vs untreated controls
Description: (§1) C.1 Pre-Emergence Herbicidal Action and Crop Plant Compatibility
(§2) Seeds of monocotyledonous and dicotyledonous weed plants and crop plants are placed in plastic or organic planting pots and covered with soil. The compounds of the invention, formulated in the form of wettable powders (WP) or as emulsion concentrates (EC), are then applied onto the surface of the covering soil as aqueous suspension or emulsion with addition of 0.5% additive at a water application rate of […] (converted). After the treatment, the pots are placed in a greenhouse and kept under good growth conditions for the trial plants. After about 3 weeks, the effect of the preparations is scored visually in comparison with untreated controls as percentages. For example, 100% activity=the plants have died, 0% activity=like control plants.
(§3) ABUTH: Abutilon theophrasti ALOMY: Alopecurus myosuroides AMARE: Amaranthus retroflexus AVEFA: Avena fatua CYPES: Cyperus esculentus ECHCG: Echinochloa crus-galli LOLMU: Lolium multiflorum MATIN: Matricaria inodora PHBPU: Ipomoea purpurea POLCO: Polygonum convolvulus SETVI: Setaria viridis STEME: Stellaria media VERPE: Veronica persica VTOTR: Viola tricolor

Stellaria media = assay: Pre-emergence herbicidal efficacy, STEME
Description: as §1, §2, §3

Veronica persica = assay: Pre-emergence herbicidal efficacy, VERPE; conditions: Table B2, application rate 320 g/ha, scored visually after about 3 weeks vs untreated controls
Description: as §1, §2, §3

Amaranthus retroflexus = assay: Pre-emergence herbicidal efficacy, AMARE; conditions: Table B2, application rate 320 g/ha, scored visually after about 3 weeks vs untreated controls
Description: as §1, §2, §3

Viola tricolor = assay: Pre-emergence herbicidal efficacy, VIOTR
Description: as §1, §2, §3

Matricaria inodora = assay: Pre-emergence herbicidal efficacy, MATIN
Description: as §1, §2, §3

[1] = Table B2, application rate 320 g/ha, scored visually after about 3 weeks vs untreated controls
[2] = application rate 320 g/ha, scored visually after about 3 weeks

| SMILES | Herbicidal efficacy against POLCO (Polygonum convolvulus) | Herbicidal efficacy against STEME (Stellaria media; [1]) | Herbicidal efficacy against VERPE (Veronica persica) | Herbicidal efficacy against AMARE (Amaranthus retroflexus) | Herbicidal efficacy against VIOTR (Viola tricolor; [1]) | Herbicidal efficacy against MATIN (Matricaria inodora; [1]) | Herbicidal efficacy against STEME (Stellaria media; [2]) | Herbicidal efficacy against VIOTR (Viola tricolor; [2]) | Herbicidal efficacy against MATIN (Matricaria inodora; [2]) |
| --- | --- | --- | --- | --- | --- | --- | --- | --- | --- |
| Cc1ccc2c(c1)C(Nc1nc3n(n1)CCCS3)CCC2 (racemic) [Example I-207] | 100% | 100% | 100% | 100% | 100% | 100% | – | – | – |
| Cc1ccc2c(c1)[C@H](Nc1nc3n(n1)CCN(C(=O)C1CCCCC1)C3)CCC2 [Example I-187] | 100% | 100% | 100% | 100% | 100% | 90% | – | – | – |
| Cc1ccc2c(c1)[C@H](Nc1nc3n(n1)CCN(S(=O)(=O)C1CCCC1)C3)[C@@H](C)C2 [Example I-193] | 100% | 100% | 100% | 100% | 100% | 90% | – | – | – |
| Cc1ccc2c(c1)[C@H](Nc1nc3n(n1)CCN(S(=O)(=O)C1CCCC1)C3)CCC2 [Example I-201] | 100% | 100% | 100% | 100% | 100% | 90% | – | – | – |
| Cc1ccc2c(c1)[C@H](Nc1nc3n(n1)CCN(S(=O)(=O)c1ccccc1Cl)C3)CCC2 [Example I-203] | 100% | 100% | 100% | 100% | 100% | 90% | – | – | – |
| Cc1ccc2c(c1)C(Nc1nc3n(n1)CCCS3(=O)=O)CCC2 (stereo not shown) [Example I-239] | 100% | 100% | 100% | 100% | 100% | 100% | – | – | – |
| [O-][S+]1CCCCn2nc(NC3CCc4ccccc43)nc21 (stereo not shown) [Example I-250] | 100% | 100% | 90% | 100% | 100% | 100% | 100% | 100% | 100% |
| O=S1(=O)CCCCn2nc(NC3CCCc4ccccc43)nc21 (stereo not shown) [Example I-253] | 100% | 100% | 100% | 100% | 100% | 100% | 100% | 100% | 100% |
| CN1C(=O)CCn2nc(NC3CCCc4ccccc43)nc21 (stereo not shown) [Example I-278] | 100% | 100% | 100% | 100% | 100% | 100% | 80% | 90% | 80% |
| Cc1ccc2c(c1)C(Nc1nc3n(n1)CCCN3S(C)(=O)=O)CC2 (stereo not shown) [Example I-301] | 80% | 100% | 90% | 100% | 100% | 100% | – | – | – |
| Cc1ccc2c(c1)C(Nc1nc3n(n1)CCC(=O)N3Cc1ccccc1)CCC2 (stereo not shown) [Example I-315] | – | 90% | 100% | 80% | 100% | 80% | – | – | – |
| Cc1ccc2c(c1)C(Nc1nc3n(n1)CCC(=O)N3C(C)C)CCC2 (stereo not shown) [Example I-316] | 100% | 100% | 100% | – | 100% | 100% | 100% | 100% | 100% |
